Measured values taken from patent publication US8815946B2, “Inhibition of proliferation and fibrotic response of activated corneal stromal cells” (University of Pittsburgh—of the Commonwealth System of …, priority 2008, dated 2014).
“Also recorded” adds a separate entry of the source.

Columns and labels:
[1] = tested on: alpha-smooth muscle actin; assay: Western blot of TGF-β1 activated rabbit corneal keratocytes: alpha-smooth muscle actin; assay type: cell-based; settings: TGF-β1 (10 ng/ml)+1% FBS, two days, compared to controls with no treatment
Protocol: (§1) FIGS. 19A and 19B. Western blot analyses: Rabbit corneal keratocytes were isolated and cultured in serum-free DMEM/F12 into 60 mm tissue culture dishes. After 24 hrs of incubation, the media were replaced with DMEM/F12 medium containing TGF-β1(10 ng/ml)+1% FBS without (control) or with EP or EP-derivatives for two days. The cells were extracted in RIPA buffer and the extracts containing 5 μg of total proteins were loaded per lane for Western blot analysis.
(§2) Keratocytes or fibroblasts grown under different culture conditions were extracted in RIPA buffer (9.1 mM dibasic sodium phosphate, 1.7 mM monobasic sodium phosphate, 150 mM NaCl, pH, 7.4, 1% Nonidet P-40, 0.5% sodium deoxycholate, 0.1% SDS, 0.03 TIU/mL aprotinin, 1 mM sodium orthovanadate, and 100 μg/mL phenylmethylsulfonyl fluoride (PMSF)). Aliquots of cell extracts containing 50 or 100 μg protein were subjected to SDS-PAGE. Protein bands on SDS-PAGE were electrophoretically transferred to IMMOBILON-P™ membrane (Millipore Corp., Bedford, Mass.), stained with 0.1% Coomassie blue 250 in 40% methanol/1% acetic acid for 1 minute, destained one to three times with 50% methanol/1% acetic acid, scanned for densitometric comparisons of relative concentrations of proteins per lane, destained with methanol, and subjected to Western blot analysis. Immunoreactive bands were detected using chemiluminescence Western chemiluminescence reagents.
(§3) As described in Example 1, corneal stromal cells were isolated from rabbit corneas and cultured using the same procedures. The keratocytes in serum free media were treated with b-FGF (40 ng/ml)+HS (5 μg/ml) with or without 15 mM EP or 1, 2.5 or 5 mM following EP derivatives: 2-oxopropionic acid 3-methoxyphenyl ester, 2-oxopropionic acid 2-ethoxyethyl ester, 2-oxopropionic acid 2-chloroethyl ester, 2-oxopropionic acid isopropyl ester, 2-oxopropionic acid butyl ester, 2-oxopropionic acid p-tolyl ester, 2-oxopropionic acid tert-butyl ester. […] The relative levels of the expression of specific proteins were analyzed by Western blot analyses of the cell lysates as described supra.

[2] = tested on: type III collagen, tenascin and fibronectin; assay: Western blot of TGF-β1 activated rabbit corneal keratocytes: type III collagen, tenascin, fibronectin; assay type: cell-based; settings: TGF-β1 (10 ng/ml)+1% FBS, two days, compared to controls with no treatment
Protocol: as §1, §2, §3

SMILES | alpha-smooth muscle actin levels (Western blot) [1] | levels of type III collagen, tenascin and fibronectin (Western blot) [2]
CC(=O)C(=O)OCCCl [2-oxopropionic acid 2-chloroethyl ester] | reduced expression; also recorded: reduced levels | reduced levels
CC(=O)C(=O)Oc1ccc(C)cc1 [2-oxopropionic acid p-tolyl ester] | reduced expression; also recorded: reduced levels | reduced levels
